The text below walks through data of patent US9108978B2, “Antimicrobial compounds” (ADELAIDE RESEARCH & INNOVATION PTY LTD, priority 2011, dated 2015).

Like-named read-outs stand apart in the source and are kept apart here. A value given as a limit tells only on which side of the number the result lay.

Assay [1] has as its target biotin protein ligase from S. aureus (SaBPL) (Staphylococcus aureus, UniProt A0A3A5LBF0). As to the kind of experiment: BPL enzyme inhibition assay (3H-biotin incorporation), SaBPL. The format is biochemical. To be noted: for IC50: 4 nM BPL, 20 minutes at 37° C.; for selectivity towards SaBPL over HsBPL (human BPL): Hs vs SaBPL. The procedure: (§1) Quantitation of BPL catalysed ^3H-biotin incorporation into the biotin domain substrate was performed as previously described by Polyak et al, J. Biol. Chem (1999) 274(46) 32847-54. Briefly, the reaction mixture contained: 50 mM Tris HCl pH 8.0, 3 mM ATP, 4.5 μM biotin, 0.5 μM ^3H-biotin, 5.5 mM MgCl2, 100 mM KCl, 0.1 mg/mL BSA and 10 μM biotin domain of S. aureus pyruvate carboxylase. The reaction was initiated by the addition of BPL to a final concentration of 4 nM. After 20 minutes at 37° C., 4 μL aliquots of the reaction were spotted onto Whatman paper pre-treated with biotin and trichloroacetic acid. The filters were washed twice with 10% v/v ice-cold trichloroacetic acid and once with ethanol before air-drying. Quantitation of protein-bound radiolabelled biotin was performed by liquid scintillation. One unit of enzyme activity was defined by the amount of BPL required to incorporate 1 nmol of biotin per minute. The IC50 value of each compound was determined from a dose-response curve by varying the concentration of the inhibitor under the same enzyme concentration. The data was analysed with GraphPad Prism using a non-linear fit of log10 (inhibitor) vs. normalized response. The Ki, the absolute inhibition constant for a compound, was determined using Eq 1:
The mode of inhibition was investigated by varying the concentrations of inhibitor alongside varying the concentrations of ^3H-biotin. The data was plotted as double reciprocal plots and assessed using Lineweaver-Burk analysis.
Triazoles 6.02-6.10 were assayed for inhibitory activity against the biotin protein ligases from S. aureus (SaBPL), Escherichia coli (EcBPL) and Homo sapiens (HsBPL) (Table 3). The inhibitory activity of the compounds was determined by measuring BPL activity with varying concentrations of inhibitors. From the dose-response curves IC50 values were determined and Ki values calculated.

Assay [2] addresses biotin protein ligase from Homo sapiens (HsBPL) (Homo sapiens (Human), UniProt P50747). As to the kind of experiment: BPL enzyme inhibition assay (3H-biotin incorporation), HsBPL. It is filed as biochemical. The procedure:
as §1
(§2) The inhibitory activity of the compounds was determined by measuring BPL activity with varying concentrations of inhibitors. From the dose-response curves IC50 values were determined and Ki values calculated.

Assay [3] has as its target biotin protein ligase from Escherichia coli (EcBPL) (Escherichia coli (strain K12), UniProt P06709). As to the kind of experiment: BPL enzyme inhibition assay (3H-biotin incorporation), EcBPL. It is filed as biochemical. The procedure:
as §1, §2

Assay [4] has as its target M. tuberculosis BPL (Mycobacterium tuberculosis (strain ATCC 25618 / H37Rv), UniProt I6YFP0). As to the kind of experiment: BPL inhibition, M. tuberculosis BPL. The format is biochemical, Mycobacteria tuberculosis.
Assay [5] has as its system Enterococcus faecium. Kind of assay: Antimicrobial microbroth dilution assay, E. faecium. It is filed as cell-based. The procedure:
(§3) The biotin-triazoles were assessed for their antimicrobial activity using a microbroth dilution assay as recommended by the CLSI (Clinical and Laboratory Standards Institute, Document […]-A8, 2009, Wayne, Pa.) with cation-adjusted Mueller-Hinton broth (Trek Diagnostics Systems, U.K.). Compounds were dissolved using DMSO. Serial two-fold dilutions of each compound were made using DMSO as the diluent. Trays were inoculated with 5×10^4 CFU of each strain in a volume of 100 μL (final concentration of DMSO was 5% (v/v)), and incubated at 35° C. for 16-20 hours when the optical density of the growth cultures was measured by spectroscopy at wavelength 620 nm. A library of Gram negative and Gram positive microbes was employed.
In general terms: Broth dilution looks for growth in wells or tubes with falling amounts of substance.

For assay [6], the system named is S. aureus ATCC 49775. As to the kind of experiment: Antimicrobial microbroth dilution assay, S. aureus. The format is cell-based, Staphylococcus aureus. To be noted: at 8 μg/ml. The procedure: as §3, with “employed. […] Inhibition of the growth of S. aureus ATCC 49775 was measured using a microbroth dilution assay with varying concentrations of BPL inhibitors. […] The antibiotic erythromycin was also included (X).” for “employed.”

The subject of assay [7] is Enterococcus faecalis. Kind of assay: Antimicrobial microbroth dilution assay, E. faecalis. It is filed as cell-based. The method, then:
as §3

Setting [8] is: calculated from IC50, [biotin]=5 μM, Km 1 μM, read-out: Ki SaBPL.
Setting [9] is: read-out: Ki EcBPL (E. coli BPL).

What is called IC50 is the concentration needed to halve the response being measured. In general, Ki refers to the equilibrium dissociation constant of an inhibitor or competing ligand from its target.

Chain of biotin protein ligase from Escherichia coli (EcBPL) (P06709 whole entry, looked up): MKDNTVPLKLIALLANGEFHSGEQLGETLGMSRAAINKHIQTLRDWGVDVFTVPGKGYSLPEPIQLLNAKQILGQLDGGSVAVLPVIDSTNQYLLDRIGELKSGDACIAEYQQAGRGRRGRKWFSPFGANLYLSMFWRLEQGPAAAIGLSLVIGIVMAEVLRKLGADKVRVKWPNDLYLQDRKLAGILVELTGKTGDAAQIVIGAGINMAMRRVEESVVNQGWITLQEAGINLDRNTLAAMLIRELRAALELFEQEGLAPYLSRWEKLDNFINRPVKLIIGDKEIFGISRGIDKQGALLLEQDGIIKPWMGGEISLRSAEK
Chain of biotin protein ligase from Homo sapiens (HsBPL) (P50747 whole entry): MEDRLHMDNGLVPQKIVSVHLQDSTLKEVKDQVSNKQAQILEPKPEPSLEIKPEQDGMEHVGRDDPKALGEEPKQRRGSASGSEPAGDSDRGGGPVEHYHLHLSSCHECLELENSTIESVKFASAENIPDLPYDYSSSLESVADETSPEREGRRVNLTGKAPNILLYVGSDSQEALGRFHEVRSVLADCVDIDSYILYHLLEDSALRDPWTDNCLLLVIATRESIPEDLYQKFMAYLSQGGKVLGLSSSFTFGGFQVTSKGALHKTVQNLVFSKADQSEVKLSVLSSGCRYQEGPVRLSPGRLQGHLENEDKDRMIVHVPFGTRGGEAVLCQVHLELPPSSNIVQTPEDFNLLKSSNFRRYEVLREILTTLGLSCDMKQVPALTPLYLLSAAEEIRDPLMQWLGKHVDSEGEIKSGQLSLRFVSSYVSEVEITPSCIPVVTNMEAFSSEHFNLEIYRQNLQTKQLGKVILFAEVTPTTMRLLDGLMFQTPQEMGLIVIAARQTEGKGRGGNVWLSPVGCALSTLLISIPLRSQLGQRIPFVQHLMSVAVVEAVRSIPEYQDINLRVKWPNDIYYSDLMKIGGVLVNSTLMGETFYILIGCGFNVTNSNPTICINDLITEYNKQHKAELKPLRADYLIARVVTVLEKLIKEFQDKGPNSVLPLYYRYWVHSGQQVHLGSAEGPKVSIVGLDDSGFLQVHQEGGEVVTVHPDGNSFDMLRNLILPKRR
Chain of biotin protein ligase from S. aureus (SaBPL) (A0A3A5LBF0 1-323): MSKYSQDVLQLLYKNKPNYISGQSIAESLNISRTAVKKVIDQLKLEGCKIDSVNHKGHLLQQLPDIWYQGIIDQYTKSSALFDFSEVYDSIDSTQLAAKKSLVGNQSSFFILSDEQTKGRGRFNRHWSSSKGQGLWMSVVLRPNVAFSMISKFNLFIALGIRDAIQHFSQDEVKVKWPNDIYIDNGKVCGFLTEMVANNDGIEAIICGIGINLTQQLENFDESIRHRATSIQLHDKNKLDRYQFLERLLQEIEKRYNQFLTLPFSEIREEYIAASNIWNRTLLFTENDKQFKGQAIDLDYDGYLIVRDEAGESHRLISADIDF
Chain of M. tuberculosis BPL (I6YFP0 whole entry, looked up): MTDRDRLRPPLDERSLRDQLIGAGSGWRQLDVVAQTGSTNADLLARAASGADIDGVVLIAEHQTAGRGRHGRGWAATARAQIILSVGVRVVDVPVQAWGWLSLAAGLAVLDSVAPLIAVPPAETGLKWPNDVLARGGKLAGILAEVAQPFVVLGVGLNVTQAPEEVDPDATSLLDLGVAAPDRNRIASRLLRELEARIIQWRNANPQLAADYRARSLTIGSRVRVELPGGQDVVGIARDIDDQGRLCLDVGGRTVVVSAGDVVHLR

As for `O=C1N[C@H]2[C@H](CS[C@H]2CCCCCc2cn(CCCCOc3ccc4ccccc4c3)nn2)N1` [6.07], in assay [1], the “fold less potent against SaBPL compared to 4.01” value came to 7 fold. Also, the IC50 in assay [1] stood at 7 ± 1 µM. Also, the Ki in assay [1] (setting [8]) was 1.17 ± 0.17 µM; in assay [2] it was above 30 µM; in assay [3] (setting [9]) it was above 30 µM.
In the case of `Nc1ncnc2c1ncn2CCCCCn1cc(CCCC[C@@H]2SC[C@@H]3NC(=O)N[C@@H]32)nn1` [4.13], in assay [1], the Ki was determined as 2.86 ± 0.75 µM, the “fold less potent against SaBPL compared to 4.01” value came to 4 fold and the “inhibition against SaBPL” value is recorded as “micromolar inhibition”. The same compound showed an inhibitory constant (Ki) in assay [2] above 10 µM. The compound also displayed a Ki in assay [3] above 10 µM.
For `Cc1ccc2oc(=O)n(CCCCOP(=O)(O)OCCCCC[C@@H]3SC[C@@H]4NC(=O)N[C@@H]43)c2c1`, the IC50 in assay [1] is above 50 µM. For the same compound, the Ki in assay [1] (setting [8]) is above 10 µM.
As to `CC1(C)O[C@@H]2[C@H](O1)[C@@H](n1cnc3c(N)ncnc31)O[C@H]2Cn1cc(CCCCC[C@@H]2SC[C@@H]3NC(=O)N[C@@H]32)nn1` [3.25], the “fold less potent against SaBPL compared to biotinol-5′-AMP 2.02” value (from here on “fold less potent … to biotinol-5′-AMP 2.02”) in assay [1] was determined as 60 fold. The same compound gave an IC50 in assay [1] of 11.6 ± 2.2 µM. In addition, the “selectivity towards SaBPL over HsBPL (human BPL)” value in assay [1] is above 16 fold. For the same compound, the Ki was 1.83 ± 0.33 µM in assay [1] (read-out: Ki SaBPL), above 90 µM in assay [2], above 90 µM in assay [3] and above 30 µM in assay [3] (setting [9]).
Turning to `CC1(C)O[C@@H]2[C@H](O1)[C@@H](n1cnc3c(N)ncnc31)O[C@H]2Cn1cc(CCCC[C@@H]2SC[C@@H]3NC(=O)N[C@@H]32)nn1` [4.09], in assay [1], the affinity, expressed as Ki, was 7.53 ± 1.9 µM; the “fold less potent against SaBPL compared to triazole 3.25” value is reported as 4 fold; the “inhibition against SaBPL” value is recorded as “micromolar inhibition”. In assay [2], this compound showed a Ki above 10 µM. In assay [3], this compound showed a Ki above 10 µM.
In the case of biotin alkyne [3.12], the Ki in assay [1] (read-out: Ki SaBPL) was found to be 0.33 ± 0.05 µM.
With `Cc1ccc2oc(=O)n(CCCCc3noc(CCCCC[C@@H]4SC[C@@H]5NC(=O)N[C@@H]54)n3)c2c1` [compound 2, 3-[4-[5-[5-[(3aS,4S,6aR)-2-oxo-1,3,3a,4,6,6a-hexahydrothieno[3,4-d]imidazol-4-yl]pentyl]-1,2,4-oxadiazol-3-yl]butyl]-5-methyl-1,3-benzoxazol-2-one], the inhibitory constant (Ki) in assay [1] came out at 2.2 ± 0.8 µM; in assay [4] it was 290 ± 16 µM.
Turning to `Cc1ccc2oc(=O)n(CCCCn3cc(CCCCC[C@@H]4SC[C@@H]5NC(=O)N[C@@H]54)nn3)c2c1` [6.09], in assay [5], the “inhibition of growth of Enterococcus faecium” value is reported as “no inhibition of growth”. Further, in assay [1], the “fold increase in potency against SaBPL compared to 4.01” value was found to be 7 fold; the “fold less potent … to biotinol-5′-AMP 2.02” value turned out to be 3 fold; the “selectivity towards SaBPL over EcBPL (E. coli BPL)” value is recorded as above 1000 fold; the midpoint of inhibition, the IC50, lay at 0.53 ± 0.01 µM. Besides, in assay [1], the “selectivity towards SaBPL over HsBPL (human BPL)” value is given as above 1000 fold. Further, in assay [1] (read-out: Ki SaBPL), the Ki turned out to be 0.09 ± 0.02 µM. In assay [6], the “prevention of cell growth of S. aureus ATCC 49775” value stood at 80%. Further, in assay [2], the Ki was above 30 µM. In addition, in assay [3] (setting [9]), the Ki is above 30 µM. Moreover, the “inhibition of growth of Enterococcus faecalis” value in assay [7] was “no inhibition of growth”.
Turning to `Nc1ncnc2c1ncn2CCCCn1cc(CCCCC[C@@H]2SC[C@@H]3NC(=O)N[C@@H]32)nn1` [4.01], in assay [1], the “fold less potent … to biotinol-5′-AMP 2.02” value was determined as 22 fold, the “inhibition against SaBPL” value is given as “micromolar inhibition”, the “selectivity towards SaBPL over EcBPL (E. coli BPL)” value is reported as “at least 400 fold” and the IC50 was 4 ± 0.9 µM. The “selectivity towards SaBPL over HsBPL (human BPL)” value in assay [1] is “at least 400 fold”. The Ki in assay [1] (setting [8]) is 0.66 ± 0.15 µM. In addition, in assay [2], the Ki is above 90 µM. In assay [2] (in b132 the quantity is not named), this compound registered an IC50 above 200 µM. Also, in assay [3], the IC50 was above 200 µM and the Ki is above 90 µM. Besides, the Ki in assay [3] (setting [9]) was above 30 µM.
